Data on one compound can be found in patent US20120251551A1, “Substituted (Heteroarylmethyl)thiohydantoins” (BAYER PHARMA AKTIENGESELLSCHAFT, priority 2009, published 2012).

Data set [1] has as its target T1, wild-type human androgen receptor (Homo sapiens, UniProt P10275).
T1 construct: expressed in transfected cells
T1 sequence (P10275 1-920): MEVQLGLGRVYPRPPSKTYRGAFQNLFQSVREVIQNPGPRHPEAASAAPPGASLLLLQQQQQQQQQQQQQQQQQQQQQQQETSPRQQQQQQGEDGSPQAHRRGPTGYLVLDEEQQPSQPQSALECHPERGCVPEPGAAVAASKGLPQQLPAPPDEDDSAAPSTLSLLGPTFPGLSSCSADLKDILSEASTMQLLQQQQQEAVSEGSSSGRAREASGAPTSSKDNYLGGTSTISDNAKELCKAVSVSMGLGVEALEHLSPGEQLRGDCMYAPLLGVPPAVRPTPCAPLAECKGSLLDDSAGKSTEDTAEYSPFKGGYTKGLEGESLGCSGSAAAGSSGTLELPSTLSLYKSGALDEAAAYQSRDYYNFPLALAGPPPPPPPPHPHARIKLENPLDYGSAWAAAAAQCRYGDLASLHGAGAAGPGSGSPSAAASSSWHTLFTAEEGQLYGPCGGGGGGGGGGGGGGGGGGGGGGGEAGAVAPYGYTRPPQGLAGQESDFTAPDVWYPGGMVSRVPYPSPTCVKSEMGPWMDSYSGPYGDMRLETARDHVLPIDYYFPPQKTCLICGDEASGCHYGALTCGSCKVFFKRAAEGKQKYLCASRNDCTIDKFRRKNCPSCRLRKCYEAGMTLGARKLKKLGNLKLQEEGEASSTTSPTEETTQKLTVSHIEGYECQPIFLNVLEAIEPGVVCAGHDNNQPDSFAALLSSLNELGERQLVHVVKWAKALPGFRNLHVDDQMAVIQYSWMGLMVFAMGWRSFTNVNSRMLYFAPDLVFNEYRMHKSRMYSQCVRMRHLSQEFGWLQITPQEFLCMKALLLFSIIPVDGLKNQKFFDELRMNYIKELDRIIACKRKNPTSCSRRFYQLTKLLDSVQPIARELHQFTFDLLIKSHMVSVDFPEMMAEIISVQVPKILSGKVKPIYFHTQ
Kind of data set: Cell-based transactivation assay for wild-type human androgen receptor (PC-3 cells, MMTV-luciferase reporter).
Method: Cell-Based Transactivation Assay for Wild-Type Human Androgen Receptor
PC-3 cells (Kaighn et al., Invest. Urol. 17:16-23, 1979) stably transfected with the human androgen receptor (Swiss-Prot Acc. No. P10275, Entry Version 159, Sequence Version 2) and a reporter plasmid based on pGL4.14 (#E6691, Promega Corporation, Madison, Wis., USA) containing the MMTV promoter (Cato et al., EMBO J. 6:363-8, 1987) were used. They were grown in 5% charcoal-stripped medium and seeded at a concentration of 1000 cells per well in a 384-well plate. For determination of antagonistic activity, the plate additionally contained the compound to be tested at a concentration range varying from 5.12×10^−12 to 1×10^−5 M. The assay was performed in presence of 1×10^−10 R1881 (also known as methyltrienolone). After overnight incubation at 37° C. in a 5% CO2 atmosphere, 15 μl of Steady Glo Lysis and Detection reagent (Steady Glo Luciferase assay system E2550 from Promega Corporation. Madison, Wis., USA) were added. IC50 was calculated for anti-androgenic activity as well as percentage inhibition in presence of 2 μM compound in comparison to non-stimulated luciferase signal. Agonistic activity was determined using the same concentration range of compound in the absence of R1881 by measuring Luciferase activity as above. EC50 was calculated for androgenic activity. Assay/read plates were used (Polystyrol; 384, NV-white cell culture plates; Perkin Elmer).

Data set [2] addresses T2, human androgen receptor W741L mutant (Homo sapiens, UniProt P10275, W742L).
T2 construct: expressed in transfected cells; host or cells: PC-3 cells, transient transfection with a pSG5-derived plasmid
T2 sequence (P10275 1-920 W742L): T1 sequence (P10275 1-920) with W742L
Kind of data set: Cell-based transactivation assay for human androgen receptor mutant W741L.
Method: Cell-Based Transactivation Assay for Human Androgen Receptor Mutant W741L or W741C
PC-3 cells (Kaighn et al., Invest. Urol. 17:16-23, 1979) were grown in 5% charcoal-stripped medium and seeded at a concentration of 10000 cells per well in a 96-well plate. They were transiently transfected with a pSG5-derived plasmid (#216201 from Stratagene, La Jolla, Calif., USA) coding for the human androgen receptor W741L or W741C mutant Mara et al., Cancer Research, 63: 149-153, 2003) and an MMTV-Luciferase reporter plasmid based on pGL4.14 14 (#E6691, Promega Corporation, Madison, Wis., USA). The compound to be tested was added at a concentration range varying from 1×10^−9 to 1×10 M together with 1×10^−10 R1881. After 24 h incubation at 37° C. in a 5% CO2 atmosphere, 100 μl of Steady Glo Lysis and Detection reagent (Steady Glo Luciferase assay system E2550 from Promega Corporation. Madison, Wis., USA) were added. Antagonistic activity was determined by measuring Luciferase activity in a Victor 3 Luminometer (PerkinElmer, Waltham, Mass., USA) using the Steady Glo Luciferase Assay (E2550, Promega). IC50 values were calculated for anti-androgenic activity.

The test system of the next data set is LNCaP cells. As to the kind of experiment: Proliferation assay with LNCaP cells. The note with it: Homo sapiens, 168 h, R1881 (1×10^−10) stimulated growth, day 7, read-out: inhibition IC50 (LNCaP). In kind it is cell-based. The method, then: Proliferation Assay with LNCaP Cells
LNCaP cells (Horoszewicz et al., in “Models for Prostate Cancer” (ed. G. P. Murphy), Alan R. Liss, New York 1981, p. 115-132; Horoszewicz et al., Cancer Res. 43:1809-1818, 1983) were seeded at 2000 cells/well in 96-well plates in RPMI (F1235, Biochrom AG, Berlin, Germany) without phenol red supplemented with 5% charcoal-stripped serum. After 3 days, the cells were treated with R1881) (1×10^−10) and compound (day 0). Cell number was determined by Alamar Blue (DAL1100, Invitrogen, Life Technologies, Lohne, Germany) staining (2.5 h) at day 0 and day 7. Fluorescence was determined in Victor3 (Excitation 530 nm; emission 590 nm). Stimulated growth was defined as the signal measured at day 7 for cells treated only with R1881. Basal level was defined as the signal measured at day 7 for cells grown without R1881.

The nature of data set [3]: Determination of metabolic stability in vitro (calculation of hepatic in vivo blood clearance). The note with it: pH 7.4, human liver microsomes, calculated from half-life, read-out: calculated hepatic in vivo blood clearance (CL) (converted). Format: in vitro ADME. The method, then: Determination of Metabolic Stability In Vitro (Including Calculation of Hepatic In Vivo Blood Clearance (CL) and of Maximal Oral Bioavailability (Fmax))
The metabolic stability of test compounds in vitro was determined by incubating them at 1 μM with a suspension of human liver microsomes in 100 mM phosphate buffer, pH7.4 (NaH2PO4×H2O+Na2HPO4×2H2O) at a protein concentration of 0.5 mg/ml and at 37° C. The reaction was activated by adding a co-factor mix containing 1.2 mg NADP, 3 IU glucose-6-phosphate dehydrogenase, 14.6 mg glucose-6-phosphate and 4.9 mg MgCl2 in phosphate buffer, pH 7.4. Organic solvent in the incubations was limited to <0.2% dimethylsulfoxide (DMSO) and <1% methanol. During incubation, the microsomal suspensions were continuously shaken and aliquots were taken at 2, 8, 16, 30, 45 and 60 min, to which equal volumes of cold methanol were immediately added. Samples were freezed at −20° C. over night, subsequently centrifuged for 15 minutes at 3000 rpm and the supernatant was analyzed with an Agilent 1200 HPLC-system with LCMS/MS detection.
The half-life of a test compound was determined from the concentration-time plot. From the half-life the intrinsic clearances were calculated. Together with the additional parameters liver blood flow, specific liver weight and microsomal protein content the hepatic in vivo blood clearance (CL) and the maximal oral bioavailability (Fmax) were calculated for the different species. The following parameter values were used: Liver blood flow—1.3 l/h/kg human; specific liver weight—21 g/kg human; microsomal protein content—40 mg/g.
With the described assay only phase-I metabolism of microsomes is reflected, e.g. typically oxidoreductive reactions by cytochrome P450 enzymes and flavin mono-oxygenases (FMO) and hydrolytic reactions by esterases (esters and amides).

Changes are numbered by the printed parent chain.

By EC50 is commonly meant the concentration that produces a half-maximal response. Low readings indicate an effect from little substance, high ones a need for much substance. The IC50 is the concentration that gives 50% inhibition. Compound `Cn1cc(-c2ccc(CN3C(=S)N(c4ccc(C#N)c(C(F)(F)F)c4)C(=O)C3(C)C)cn2)cn1` [Example 18, 4-(4,4-Dimethyl-3-{[6-(1-methyl-1H-pyrazol-4-yl)pyridin-3-yl]methyl}-5-oxo-2-thioxoimidazolidin-1-yl)-2-(trifluoromethyl)benzonitrile] displayed an EC50 in data set [1] of 9.57 µM. In addition, the IC50 stood at 94.6 nM in data set [2] and 117 nM in the data set on LNCaP cells. Moreover, the CLhep predicted at 1 µM in data set [3] is 1.83 mL/min/kg.
